In patent publication US20120100361A1, “ANTISEPTIC COMPOSITION FOR ENGINEERING WOOD PRODUCTION, AND ENGINEERING WOOD” (SDS BIOTECH K.K., priority 2009, published 2012):

Assays:
[1] = Test for miscibility with a phenol resin glue; format: physicochemical; design: key to Phenol resin status after 60 minutes: ∘: No change; x: Obvious increase in the viscosity was seen and it seems impossible to apply the composition onto the veneer sheet; details: 10% (w/w) solution added to phenol resin glue Deernol D-117 kneaded product; viscosity change visually observed for 60 minutes
Method: The following compounds, which are known to have wood preservative activity, are dissolved in methyl ethylene triglycol to reach a concentration of 10% (w/w) to thereby obtain a solution of each of the compounds.
1000 g of phenol resin-based glue Deernol D-117 (manufactured by Oshika Corporation), 70 g of wheat flour and 100 g of calcium carbonate were mixed and well kneaded. Each of the solutions of Example 1 and Comparative Example 1 to 25 was added to 17 g of the kneaded product and mixed well together. The viscosity change of the glue was visually observed for 60 minutes. […] Although a number of documents listed as the prior art documents and the like teach that quaternary ammonium compounds can be applied to the glue line treatment, it is clear that those compounds have a problem for practical use (Comparative Examples 3 and 4). On the other hand, it was confirmed that the other compounds including that of Example has no problem from the viewpoint of compatibility.

fungus cellar soil-bed [2] = assay: Fungus cellar soil-bed test of preservative LVL (JIS K1571:2004); details: 25° C., grade 0 sound condition to 5 out of shape due to the decay
Method: (§1) 1000 g of the phenol resin-based glue Deernol D-117 (manufactured by Oshika Corporation), 70 g of wheat flour and 100 g of calcium carbonate were mixed and well kneaded. A solution of each of the compounds of Example 1 and Comparative Example 1, 2 and 5 to 25 was added to the kneaded product so that the final concentrations of the compound in the wood become 150, 100, 50 and 25 g/m^3 and further kneaded. 18 g of the above kneaded product was applied onto each of the surface of glue line of the three Radiata pine veneer sheets having an area of 30 x 30 cm and thickness of 3 mm. After bonding the three sheets to each other, the sheets were subjected to cold pressing at room temperature for 20 minutes and the thermal pressure of 140° C. (10 kgf/cm^2) was applied to the sheets for two minutes to obtain the target LVL. Each of the prepared LVL was processed into the size of 20×20×9 mm to serve as a test sample.
The preservative LVL was prepared in the same manner in Preparation Example 3. Each of the prepared LVL was processed into the size of 9×9×100 mm to serve as a test sample.
(§2) The samples of the plywood and LVL prepared in Preparation Examples 4 and 5 were evaluated by the fungus cellar soil-bed test according to JIS K1571:2004. The weather resistance operation and the test method for the antiseptic effect were performed according to the above test method. The test was carried out for six months setting the test temperature to 25° C. (because the grade average of the decay damage of the non-treated test samples exceeded 2.5 in six months). […] The effect in the glue line treatment was actually investigated with respect to a number of existing antiseptics, and it was confirmed that only epoxyconazole is suitable for the glue line treatment at a low concentration.

Trametes versicolor [3] = assay: Test for antiseptic effects of preservative plywood (JIS K1571:2004); format: cell-based; details: plywood, urea melamine resin, Trametes versicolor
Method: (§3) 1000 g of urea melamine resin (PWP-60, manufactured by Oshika Corporation) was added to 180 g of wheat flour and fully kneaded to thereby obtain a kneaded product. 8 g of ammonium chloride was added as a hardening agent to the kneaded product, and a solution of each of the compounds of Example 1 and Comparative Example 1, 2 and 5 to 25 was further added thereto so that the final concentrations of the compound in the wood become 150, 100, 50 and 25 g/m^3 and kneaded. 18 g of the above kneaded product was applied onto each of the bonding plane of the three red lauan veneer sheets having an area of 30 x 30 cm and thickness of 0.85 mm/2.4 mm/0.85 mm. After bonding the three sheets to each other, the sheets were subjected to cold pressing at room temperature for 20 minutes and the thermal pressure of 120° C. (10 kgf/cm^2) was applied to the sheets for two minutes to obtain the target plywood. Each of the prepared plywood was processed into the size of 20×20×4.1 mm to serve as a test sample.
(§4) The samples of the plywood and LVL prepared in Preparation Examples 2 and 3 were evaluated by the test for antiseptic effects for the drug pressure treatment according to JIS K1571:2004. The weather resistance operation and the test method for the antiseptic effect were performed according to the above test method.

Fomitopsis palustris [4] = assay: as above; format: cell-based; details: for average rate of decrease in weight: plywood, urea melamine resin, Fomitopsis palustris
Method: as §3, §4

fungus cellar soil-bed [5] = assay: Fungus cellar soil-bed test of preservative plywood (JIS K1571:2004); details: for Grade average of the decay damage of five test samples: plywood, six months, 25° C., grade 0 sound condition to 5 out of shape due to the decay
Method: as §3
The preservative plywood was prepared in the same manner in Preparation Example 2. Each of the prepared plywood was processed into the size of 8.9 x 8.9×100 mm to serve as a test sample.
as §2

Trametes versicolor [6] = assay: Test for antiseptic effects of preservative LVL (JIS K1571:2004); format: cell-based; details: phenol resin
Method: as §1, §4

Fomitopsis palustris [7] = assay: as above; format: cell-based; details: phenol resin
Method: as §1, §4

[8] = treated amount 25 g/m^3, six months
[9] = treated amount 50 g/m^3, six months
[10] = treated amount 100 g/m^3, six months
[11] = treated amount 150 g/m^3, six months

CCCCNC(=O)OCC#CI [Comparative Example 23, 3-iode-2-propynyl-n-butylcarbamate]
Phenol resin status after 60 minutes [1]: ∘
Grade average of the decay damage of five test samples (fungus cellar soil-bed [2]; [8]): 3.0
Grade average of the decay damage of five test samples (fungus cellar soil-bed [2]; [9]): 3.4
Grade average of the decay damage of five test samples (fungus cellar soil-bed [2]; [10]): 3.2
Grade average of the decay damage of five test samples (fungus cellar soil-bed [2]; [11]): 2.6
average rate of decrease in weight (Trametes versicolor [3]; treated amount 25 g/m^3): X (The average rate of decrease in weight was 3% or more.)
average rate of decrease in weight (Trametes versicolor [3]; treated amount 50 g/m^3): X (The average rate of decrease in weight was 3% or more.)
average rate of decrease in weight (Trametes versicolor [3]; treated amount 100 g/m^3): X (The average rate of decrease in weight was 3% or more.)
average rate of decrease in weight (Trametes versicolor [3]; treated amount 150 g/m^3): X (The average rate of decrease in weight was 3% or more.)
average rate of decrease in weight (Fomitopsis palustris [4]; treated amount 25 g/m^3): X (The average rate of decrease in weight was 3% or more.)
average rate of decrease in weight (Fomitopsis palustris [4]; treated amount 50 g/m^3): X (The average rate of decrease in weight was 3% or more.)
average rate of decrease in weight (Fomitopsis palustris [4]; treated amount 100 g/m^3): X (The average rate of decrease in weight was 3% or more.)
average rate of decrease in weight (Fomitopsis palustris [4]; treated amount 150 g/m^3): X (The average rate of decrease in weight was 3% or more.)
Grade average of the decay damage of five test samples (fungus cellar soil-bed [5]; treated amount 25 g/m^3): 2.8
Grade average of the decay damage of five test samples (fungus cellar soil-bed [5]; treated amount 50 g/m^3): 2.8
Grade average of the decay damage of five test samples (fungus cellar soil-bed [5]; treated amount 100 g/m^3): 3.2
Grade average of the decay damage of five test samples (fungus cellar soil-bed [5]; treated amount 150 g/m^3): 2.8
average rate of decrease in weight (Trametes versicolor [6]; treated amount 25 g/m^3): X (The average rate of decrease in weight was 3% or more.)
average rate of decrease in weight (Trametes versicolor [6]; treated amount 50 g/m^3): X (The average rate of decrease in weight was 3% or more.)
average rate of decrease in weight (Trametes versicolor [6]; treated amount 100 g/m^3): X (The average rate of decrease in weight was 3% or more.)
average rate of decrease in weight (Trametes versicolor [6]; treated amount 150 g/m^3): X (The average rate of decrease in weight was 3% or more.)
average rate of decrease in weight (Fomitopsis palustris [7]; treated amount 25 g/m^3): X (The average rate of decrease in weight was 3% or more.)
average rate of decrease in weight (Fomitopsis palustris [7]; treated amount 50 g/m^3): X (The average rate of decrease in weight was 3% or more.)
average rate of decrease in weight (Fomitopsis palustris [7]; treated amount 100 g/m^3): X (The average rate of decrease in weight was 3% or more.)
average rate of decrease in weight (Fomitopsis palustris [7]; treated amount 150 g/m^3): X (The average rate of decrease in weight was 3% or more.)

Fc1ccc([C@]2(Cn3cncn3)O[C@H]2c2ccccc2Cl)cc1 (racemic) [Example 1, Epoxyconazole]
Phenol resin status after 60 minutes [1]: ∘
Grade average of the decay damage of five test samples (fungus cellar soil-bed [2]; [8]): 0.4
Grade average of the decay damage of five test samples (fungus cellar soil-bed [2]; [9]): 0
Grade average of the decay damage of five test samples (fungus cellar soil-bed [2]; [10]): 0
Grade average of the decay damage of five test samples (fungus cellar soil-bed [2]; [11]): 0
average rate of decrease in weight (Trametes versicolor [3]; treated amount 25 g/m^3): ◯ (The average rate of decrease in weight was less than 3%.)
average rate of decrease in weight (Trametes versicolor [3]; treated amount 50 g/m^3): ◯ (The average rate of decrease in weight was less than 3%.)
average rate of decrease in weight (Trametes versicolor [3]; treated amount 100 g/m^3): ◯ (The average rate of decrease in weight was less than 3%.)
average rate of decrease in weight (Trametes versicolor [3]; treated amount 150 g/m^3): ◯ (The average rate of decrease in weight was less than 3%.)
amount showing sufficient antiseptic effect (Fomitopsis palustris [4]; glue line method, plywood and LVL, both fungi, summary of Tables 2 and 3): 25 to 50 g/m^3
average rate of decrease in weight (Fomitopsis palustris [4]; treated amount 25 g/m^3): ◯ (The average rate of decrease in weight was less than 3%.)
average rate of decrease in weight (Fomitopsis palustris [4]; treated amount 50 g/m^3): ◯ (The average rate of decrease in weight was less than 3%.)
average rate of decrease in weight (Fomitopsis palustris [4]; treated amount 100 g/m^3): ◯ (The average rate of decrease in weight was less than 3%.)
average rate of decrease in weight (Fomitopsis palustris [4]; treated amount 150 g/m^3): ◯ (The average rate of decrease in weight was less than 3%.)
amount showing sufficient antiseptic effect (fungus cellar soil-bed [5]; fungus cellar soil-bed test, plywood and LVL, text summary of Tables 4 and 5): 25 to 50 g/m^3
Grade average of the decay damage of five test samples (fungus cellar soil-bed [5]; treated amount 25 g/m^3): 0.2
Grade average of the decay damage of five test samples (fungus cellar soil-bed [5]; treated amount 50 g/m^3): 0
Grade average of the decay damage of five test samples (fungus cellar soil-bed [5]; treated amount 100 g/m^3): 0
Grade average of the decay damage of five test samples (fungus cellar soil-bed [5]; treated amount 150 g/m^3): 0
average rate of decrease in weight (Trametes versicolor [6]; treated amount 25 g/m^3): ◯ (The average rate of decrease in weight was less than 3%.)
average rate of decrease in weight (Trametes versicolor [6]; treated amount 50 g/m^3): ◯ (The average rate of decrease in weight was less than 3%.)
average rate of decrease in weight (Trametes versicolor [6]; treated amount 100 g/m^3): ◯ (The average rate of decrease in weight was less than 3%.)
average rate of decrease in weight (Trametes versicolor [6]; treated amount 150 g/m^3): ◯ (The average rate of decrease in weight was less than 3%.)
average rate of decrease in weight (Fomitopsis palustris [7]; treated amount 25 g/m^3): ◯ (The average rate of decrease in weight was less than 3%.)
average rate of decrease in weight (Fomitopsis palustris [7]; treated amount 50 g/m^3): ◯ (The average rate of decrease in weight was less than 3%.)
average rate of decrease in weight (Fomitopsis palustris [7]; treated amount 100 g/m^3): ◯ (The average rate of decrease in weight was less than 3%.)
average rate of decrease in weight (Fomitopsis palustris [7]; treated amount 150 g/m^3): ◯ (The average rate of decrease in weight was less than 3%.)
